# Assay results published in patent publication US6858588B2, “Nitrile glycoside useful as a bioenhancer of drugs and nutrients, process of its isolation from moringa oleifera” (Council of Scientific and Industrial Research, priority 2003, dated 2005).
# Tests used:
# [1] = tested on: B. subtilis (MTCC121); experiment: Bioactivity enhancement of antibiotics (killing, broth/titre assay) against B. subtilis; format: cell-based, Bacillus subtilis; conditions: Table 5
# [2] = tested on: E. coli (CA8000); experiment: Bioactivity enhancement of antibiotics (killing, broth/titre assay) against E. coli
# [3] = tested on: M. smegmatis (MC^2 155); experiment: Bioactivity enhancement of antibiotics (killing, broth/titre assay) against M. smegmatis; format: cell-based, Mycobacterium smegmatis; conditions: Table 5
# [4] = tested on: C. albicans; experiment: Enhancement of anticandidial activity of clotrimazole, broth assay
# [5] = human volunteers; formulation containing rifampicin, pyrazinamide and isoniazid; cited from earlier work
# [6] = anaesthetized rat, 1-10 mg/kg I.V; cited from earlier work
# [7] = Bioavailability test using gastro-intestinal epithelium (U-tube); format: in vitro ADME, goat; conditions: in combination; FIG. 3
# Source text: Specially designed U-tubes of glass consisting of two components (opposite-L type) were used in which one open end of an L-shaped was tapered to fit within the end of the other L-tube (as described in U.S. Pat. No. 6,410,059). The membrane of goat gut (initial part) was stretched and fixed to act as the barrier between the two ends such that by joining the two L-tubes, a U-tube was made. Sterile distilled water was then filled in both the sides to equal height/level. The antibiotic/compound was added to the donor tube (tapered) and through spectro-photometer, the transfer of molecule was observed using UV and visible absorption maxima of the respective molecules by taking the OD at defined wavelengths (264 nm for isoniazid).
# [8] = tested on: E. coli DH5α; experiment: Enhancement of bacterial transformation with pUC18 plasmid DNA, DH5α
# Protocol: (§1) Overnight grown bacterial E. coli DH5α (Sambrook at al^28) cells were diluted to 10 folds in growth medium and treated with niaziridin @1-10 μg/ml for 4 hours at 37° C. in a shaker (200 RPM).
# (§2) These log phase cells were then treated with calcium chloride to induce competence and then transformed with pUC18 plasmid DNA and plated on Luria agar plates containing 100 μg/ml ampicillin.
# [9] = tested on: E. coli CA8000; experiment: Enhancement of bacterial transformation with pUC18 plasmid DNA, CA8000
# Protocol: as §1, §2
# [10] = tested on: M.tuberculosis H37Rv (ATCC 27294); experiment: Bioactivity enhancement of anti-tubercular drugs, radiometric BACTEC 460 TB system; format: cell-based, Mycobacterium tuberculosis; conditions: BACTEC 460, 12 days
# [11] = tested on: E. coli cells (CA 8000), λ phage; experiment: λ phage adsorption on E. coli cells; conditions: Cells pretreated with niaziridin @ 1 ug/ml
# Protocol: Overnight grown bacterial culture (Escherichia coli, CA 8000) was divided into 5 ml of aliquot each in screw cap tubes. One of the tube with the bacterial culture was treated with niaziridin to a final concentration of 1 μg/ml. Both the control and the treated tubes were incubated at 37° C. for 4 hours. The cultures were then infected with λ phage (MOI=10) for 10 minutes at 37° C. (for adsorption) followed by centrifugation at 10000 RPM for 10 minutes at 4° C.
# The supernatant and the pellets for both treated and untreated cultures were then compared for the phage titer by plating on top agar containing sensitive bacteria at different dilutions.
# [12] = Cells pretreated with niaziridin at 1 ug/ml
# [13] = Cells pretreated with niaziridin at 10 ug/ml
# [14] = Amp (0.01) + Niaziridin 1.0 μg/ml
# [15] = Nal (2.0) + Niaziridin 1.0 μg/ml
# [16] = Rif (0.05) + Niaziridin 1.0 μg/ml
# [17] = Tet (1.0) + Niaziridin 1.0 μg/ml
# [18] = Table 4, Amp 6 μg/ml + Niaziridin 0.1 μg/ml
# [19] = Table 4, Nal 6 μg/ml + Niaziridin 0.1 μg/ml
# [20] = Table 4, Rif 20 μg/ml + Niaziridin 0.1 μg/ml
# [21] = Table 4, Rif 30 μg/ml + Niaziridin 0.1 μg/ml
# [22] = Table 4, Tet 1 μg/ml + Niaziridin 0.1 μg/ml
# [23] = Table 4, Tet 2 μg/ml + Niaziridin 0.1 μg/ml
# [24] = Amp (0.1) + Niaziridin 1.0 μg/ml
# [25] = Nal (1.0) + Niaziridin 1.0 μg/ml
# [26] = Tet (2.0) + Niaziridin 1.0 μg/ml
compound,measurement,setting,value
"CC1(C)S[C@@H]2[C@H](NC(=O)[C@H](N)c3ccccc3)C(=O)N2[C@H]1C(=O)O [Amp, ampicillin, reference compound]",% Survival,[1]; Amp (0.01) alone,72.5%
same,Titre,[1]; Amp (0.01) alone,2.9 × 10^8
same,% Survival,"[2]; Table 4, Amp 6 μg/ml alone",3.69%
same,Titre,"[2]; Table 4, Amp 6 μg/ml alone",8.5 × 10^6
same,% Survival,[3]; Amp (0.1) alone,25.0%
same,Titre,[3]; Amp (0.1) alone,1.0 × 10^8
"Clc1ccccc1C(c1ccccc1)(c1ccccc1)n1ccnc1 [Clotrimazole, clotrimazole, reference compound]",Cfu/ml at 36 h,[4]; Clotrimazole alone 0.5 ug/ml,23.6 × 10^5 Cfu/ml
O=C(/C=C/C=C/c1ccc2c(c1)OCO2)N1CCCCC1 [piperine],Comparative levels and peak concentration of the drugs in the presence of piperine,[5],higher
"CN(C)[C@@H]1C(=O)C(C(N)=O)=C(O)[C@@]2(O)C(=O)C3=C(O)c4c(O)cccc4[C@@](C)(O)[C@H]3C[C@@H]12 [Tet, tetracycline, reference compound]",% Survival,[1]; Tet (1.0) alone,17.5%
same,Titre,[1]; Tet (1.0) alone,7.0 × 10^7
same,% Survival,"[2]; Table 4, Tet 1 μg/ml alone",1.16%
same,Titre,"[2]; Table 4, Tet 1 μg/ml alone",7.0 × 10^6
same,% Survival,"[2]; Table 4, Tet 2 μg/ml alone",0.58%
same,Titre,"[2]; Table 4, Tet 2 μg/ml alone",3.5 × 10^6
same,% Survival,[3]; Tet (2.0) alone,30.0%
same,Titre,[3]; Tet (2.0) alone,1.2 × 10^8
niaziminin A,Hypotensive and bradycardiac effect,[6],produced hypotensive and bradycardiac effect
COC(=S)NCc1ccc(O[C@@H]2O[C@@H](C)[C@H](O)[C@@H](O)[C@H]2O)cc1 [niazinin A],Hypotensive and bradycardiac effect,[6],produced hypotensive and bradycardiac effect
niaziminin B,Hypotensive and bradycardiac effect,[6],produced hypotensive and bradycardiac effect
"CCn1cc(C(=O)O)c(=O)c2ccc(C)nc21 [Nal, nalidixic acid, reference compound]",% Survival,[1]; Nal (2.0) alone,7.75%
same,Titre,[1]; Nal (2.0) alone,3.1 × 10^7
same,% Survival,"[2]; Table 4, Nal 6 μg/ml alone",1.0%
same,Titre,"[2]; Table 4, Nal 6 μg/ml alone",6.0 × 10^6
same,% Survival,[3]; Nal (1.0) alone,92.5%
same,Titre,[3]; Nal (1.0) alone,3.7 × 10^8
niazinin B,Hypotensive and bradycardiac effect,[6],produced hypotensive and bradycardiac effect
"CC1OC(Oc2ccc(CC#N)cc2O)C(O)C(O)C1O (centres unmarked) [Niaziridin, NIAZIRIDIN]",Uptake of nutrients like Vitamine B12 through the intestinal gut membrane,[7],able to facilitate the uptake
same,Cfu/ml at 36 h,[4]; Clotrimazole 0.5 ug/ml + Niaziridin 10 ug/ml,4.5 × 10^5 Cfu/ml
same,Fold enhancement of lethal activity,"[4]; Clotrimazole 0.5 ug/ml + Niaziridin 10 ug/ml, 36 h",5.2 fold
same,Fold enhancement in DNA transformation,[8]; [12],1.9 fold
same,Titre (transformants),[8]; [12],16.0 10^4
same,Fold enhancement in DNA transformation,[8]; [13],2.3 fold
same,Titre (transformants),[8]; [13],20.0 10^4
same,Fold enhancement in DNA transformation,[9]; [12],1.9 fold
same,Titre (transformants),[9]; [12],8.30 10^3
same,Fold enhancement in DNA transformation,[9]; [13],5.5 fold
same,Titre (transformants),[9]; [13],24.0 10^3
same,% Survival,[1]; [14],14.2%
same,Folds enhancement in killing,[1]; [14],5.1 folds
same,Titre,[1]; [14],5.7 × 10^7
same,% Survival,[1]; [15],1.1%
same,Folds enhancement in killing,[1]; [15],7.0 folds
same,Titre,[1]; [15],4.6 × 10^6
same,% Survival,[1]; [16],2.7%
same,Folds enhancement in killing,[1]; [16],19.4 folds
same,Titre,[1]; [16],1.1 × 10^7
same,% Survival,[1]; [17],5.0%
same,Folds enhancement in killing,[1]; [17],3.5 folds
same,Titre,[1]; [17],2.0 × 10^7
same,"Enhancement of activity of rifampicin, ampicillin, nalidixic acid",[1]; range over both Gram (+) strains (B. subtilis and M. smegmatis),1.2-19 folds
same,% Survival,[2]; [18],0.69%
same,Fold enhancement in killing over antibiotic alone,[2]; [18],5.3 fold
same,Titre,[2]; [18],1.6 × 10^6
same,% Survival,[2]; [19],0.02%
same,Fold enhancement in killing over antibiotic alone,[2]; [19],50.0 fold
same,Titre,[2]; [19],1.2 × 10^5
same,% Survival,[2]; [20],0.0035%
same,Fold enhancement in killing over antibiotic alone,[2]; [20],38.8 fold
same,Titre,[2]; [20],3.9 × 10^3
same,% Survival,[2]; [21],0.003%
same,Fold enhancement in killing over antibiotic alone,[2]; [21],12.6 fold
same,Titre,[2]; [21],3.0 × 10^3
same,% Survival,[2]; [22],0.5%
same,Fold enhancement in killing over antibiotic alone,[2]; [22],2.3 fold
same,Titre,[2]; [22],3.0 × 10^6
same,% Survival,[2]; [23],0.11%
same,Fold enhancement in killing over antibiotic alone,[2]; [23],5.2 fold
same,Titre,[2]; [23],7.5 × 10^5
same,"Enhancement of activity of commonly used antibiotics (rifampicin, tetracycline, nalidixic acid etc)",[2]; text summary of Table 4,enhanced activity
same,Enhancement of antimycobacterial activity of rifampicin (Growth Index),[10]; FIG. 1,able to enhance
same,Enhancement of antimycobacterial activity of isoniazid (Growth Index),[10]; FIG. 2,able to enhance
same,"Phage titer, Pellet",[11]; MOI 5,7.7 10^7 pfu
same,"Phage titer, Supernatant",[11]; MOI 5,7.7 10^7 pfu
same,"Phage titer, Pellet",[11]; MOI 10,18.0 10^7 pfu
same,"Phage titer, Supernatant",[11]; MOI 10,8.0 10^7 pfu
same,% Survival,[3]; [24],5.25%
same,Folds enhancement in killing,[3]; [24],4.7 folds
same,Titre,[3]; [24],2.1 × 10^7
same,% Survival,[3]; [25],75.0%
same,Folds enhancement in killing,[3]; [25],1.2 folds
same,Titre,[3]; [25],3.0 × 10^8
same,% Survival,[3]; [16],16.75%
same,Folds enhancement in killing,[3]; [16],1.9 folds
same,Titre,[3]; [16],6.7 × 10^6
same,% Survival,[3]; [26],7.5%
same,Folds enhancement in killing,[3]; [26],4.0 folds
same,Titre,[3]; [26],3.0 × 10^7
"CO[C@H]1/C=C/O[C@@]2(C)Oc3c(C)c(O)c4c(O)c(c(/C=N/N5CCN(C)CC5)c(O)c4c3C2=O)NC(=O)/C(C)=C\C=C\[C@H](C)[C@H](O)[C@@H](C)[C@@H](O)[C@@H](C)[C@H](OC(C)=O)[C@@H]1C [Rif, rifampicin]",% Survival,[1]; Rif (0.05) alone,52.5%
same,Titre,[1]; Rif (0.05) alone,2.1 × 10^8
same,% Survival,"[2]; Table 2, Rif 20 μg/ml alone",24.2%
same,Titre,"[2]; Table 2, Rif 20 μg/ml alone",3.4 × 10^7
same,% Survival,"[2]; Table 2, Rif 30 μg/ml alone",21.4%
same,Titre,"[2]; Table 2, Rif 30 μg/ml alone",3.0 × 10^7
same,% Survival,"[2]; Table 3, Rif 20 μg/ml alone",40.0%
same,Titre,"[2]; Table 3, Rif 20 μg/ml alone",1.00 × 10^8
same,% Survival,"[2]; Table 3, Rif 30 μg/ml alone",23.3%
same,Titre,"[2]; Table 3, Rif 30 μg/ml alone",5.81 × 10^7
same,% Survival,"[2]; Table 4, Rif 20 μg/ml alone",0.0136%
same,Titre,"[2]; Table 4, Rif 20 μg/ml alone",1.5 × 10^4
same,% Survival,"[2]; Table 4, Rif 30 μg/ml alone",0.038%
same,Titre,"[2]; Table 4, Rif 30 μg/ml alone",3.8 × 10^4
same,% Survival,[3]; Rif (0.05) alone,32.5%
same,Titre,[3]; Rif (0.05) alone,1.3 × 10^7
CCOC(=S)NCc1ccc(OC2OC(C)C(O)C(O)C2O)cc1 (centres unmarked) [niazimicin],Hypotensive and bradycardiac effect,[6],produced hypotensive and bradycardiac effect
